Data from patent US20200024278A1, “COMPOSITION COMPRISING ANTIBIOTIC COMPOUND AND AN HETEROCYCLIC COMPOUND AND THEIR USE IN PREVENTING OR TREATING BACTERIAL INFECTIONS” (MUTABILIS, priority 2016, published 2020).

Tests used:
Assay in all cases: MIC, broth microdilution (CLSI), substance alone or ATB combined with compound at 4 or 8 μg/mL
SAU 29213 = format: cell-based, S. aureus; details: for MIC ATB combined with compound / MIC ATB combined with Example compound: compound @4 μg/ml, SAU 29213
Summary of the method: (§1)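 Potentiation format: antibiotic dilution series run with test compound held at 4 or 8 μg/mL, alongside compound-alone MICs. Broth microdilution per CLSI in ca-MHB, 16-20 h at 35° C.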

ECL P99 = format: cell-based, E. cloacae; details: ECL P99
Summary of the method: as §1

PAE UFR90 = format: cell-based, P. aeruginosa; details: PAE UFR90; for MIC ATB combined with compound / MIC ATB combined with Example compound: compound @4 μg/ml
Summary of the method: as §1

PAE UFR48 = format: cell-based, P. aeruginosa; details: PAE UFR48; for MIC ATB combined with compound / MIC ATB combined with Example compound: compound @4 μg/ml
Summary of the method: as §1

PAE 105250 = format: cell-based, P. aeruginosa; details: PAE 105250; for MIC ATB combined with compound / MIC ATB combined with Example compound: compound @4 μg/ml
Summary of the method: as §1

ABA UFR160 = format: cell-based, A. baumannii; details: Acinetobacter baumannii, substance alone, read-out: MIC
Summary of the method: as §1

ABA 19606 = format: cell-based, A. baumannii; details: Acinetobacter baumannii, substance alone, read-out: MIC
Summary of the method: as §1

SPN 49619 = format: cell-based, S. pneumoniae; details: SPN 49619; for MIC ATB combined with compound / MIC ATB combined with Example compound: compound @4 μg/ml
Summary of the method: as §1

KPN UFR42 = format: cell-based, K. pneumoniae; details: KPN UFR42; for MIC ATB combined with Example compound: compound @4 μg/ml
Summary of the method: as §1

KPN 6299 = format: cell-based, K. pneumoniae; details: MIC of CIP, compound @4 μg/ml
Summary of the method: as §1

KPN BAA-1898 = format: cell-based, K. pneumoniae; details: KPN BAA-1898
Summary of the method: as §1

ECO 190317 = format: cell-based, E. coli; details: ECO 190317
Summary of the method: as §1

ECO UFR39 = format: cell-based, E. coli; details: ECO UFR39; for MIC ATB combined with Example compound: compound @4 μg/ml
Summary of the method: as §1

[1] = Pseudomonas aeruginosa, substance alone, read-out: MIC
[2] = Escherichia coli, substance alone, read-out: MIC

MIC ATB combined with compound (SAU 29213; ATB ATM): <=0.031 μg/mL
MIC ATB combined with compound (SAU 29213; ATB FEP): <0.031 µg/mL
MIC ATB combined with compound (SAU 29213; ATB FOS): <0.125 µg/mL
MIC ATB combined with compound (SAU 29213; ATB MEM): <0.031 µg/mL
MIC ATB combined with compound (SAU 29213; ATB PIP): <0.031 µg/mL
MIC ATB combined with Example compound (SAU 29213; MIC of CIP): <0.031 µg/mL
MIC ATB combined with Example compound (SAU 29213; MIC of CLI): <0.0010 µg/mL
MIC ATB combined with Example compound (SAU 29213; MIC of CPO): <0.031 µg/mL
MIC ATB combined with Example compound (SAU 29213; MIC of DAP): <0.0020 µg/mL
MIC ATB combined with Example compound (SAU 29213; MIC of ERY): <=0.0020 μg/mL
MIC ATB combined with Example compound (SAU 29213; MIC of LZD): <0.0078 µg/mL
MIC ATB combined with Example compound (SAU 29213; MIC of RIF): 0.002 µg/mL
MIC ATB combined with Example compound (SAU 29213; MIC of SYN): 0.0039 µg/mL
MIC ATB combined with Example compound (SAU 29213; MIC of VAN): <0.0039 µg/mL
MIC (SAU 29213; Staphylococcus aureus, substance alone, SAU 29213 (MSSA 29213), read-out: MIC): 8 µg/mL
MIC (ECL P99; Enterobacter cloacae, substance alone, read-out: MIC): 2 µg/mL
MIC ATB combined with Example compound (ECL P99; MIC of CIP, compound @4 μg/ml): <0.031 µg/mL
MIC ATB combined with compound (PAE UFR90; ATB ATM): 128 µg/mL
MIC ATB combined with compound (PAE UFR90; ATB FEP): 4 µg/mL
MIC ATB combined with compound (PAE UFR90; ATB FOS): 4 µg/mL
MIC ATB combined with compound (PAE UFR90; ATB MEM): 1 µg/mL
MIC ATB combined with compound (PAE UFR90; ATB PIP): 16 µg/mL
MIC ATB combined with Example compound (PAE UFR90; MIC of CIP): 1 µg/mL
MIC ATB combined with Example compound (PAE UFR90; MIC of CPO): 8 µg/mL
MIC (PAE UFR90; [1]): > 128 µg/mL
MIC ATB combined with compound (PAE UFR48; ATB ATM): 128 µg/mL
MIC ATB combined with compound (PAE UFR48; ATB FEP): 32 µg/mL
MIC ATB combined with compound (PAE UFR48; ATB FOS): 32 µg/mL
MIC ATB combined with compound (PAE UFR48; ATB MEM): 2 µg/mL
MIC ATB combined with compound (PAE UFR48; ATB PIP): 32 µg/mL
MIC ATB combined with Example compound (PAE UFR48; MIC of CIP): 4 µg/mL
MIC ATB combined with Example compound (PAE UFR48; MIC of CPO): >32 µg/mL
MIC (PAE UFR48; [1]): 128 µg/mL
MIC ATB combined with compound (PAE 105250; ATB ATM): 8 µg/mL
MIC ATB combined with compound (PAE 105250; ATB FEP): 8 µg/mL
MIC ATB combined with compound (PAE 105250; ATB FOS): >128 µg/mL
MIC ATB combined with compound (PAE 105250; ATB MEM): 4 µg/mL
MIC ATB combined with compound (PAE 105250; ATB PIP): 32 µg/mL
MIC ATB combined with Example compound (PAE 105250; MIC of CIP): 0.125 µg/mL
MIC ATB combined with Example compound (PAE 105250; MIC of CPO): 32 µg/mL
MIC (PAE 105250; [1]): > 32 µg/mL
MIC (ABA UFR160): > 32 µg/mL
MIC (ABA 19606): > 32 µg/mL
MIC ATB combined with compound (SPN 49619; ATB ATM): <0.031 µg/mL
MIC ATB combined with compound (SPN 49619; ATB FEP): <=0.031 μg/mL
MIC ATB combined with compound (SPN 49619; ATB FOS): 4 µg/mL
MIC ATB combined with compound (SPN 49619; ATB MEM): <=0.031 μg/mL
MIC ATB combined with compound (SPN 49619; ATB PIP): <0.031 µg/mL
MIC ATB combined with Example compound (SPN 49619; MIC of CIP): 0.25 µg/mL
MIC ATB combined with Example compound (SPN 49619; MIC of CLI): 0.0039 µg/mL
MIC ATB combined with Example compound (SPN 49619; MIC of CPO): <=0.031 μg/mL
MIC ATB combined with Example compound (SPN 49619; MIC of DAP): <0.0020 µg/mL
MIC ATB combined with Example compound (SPN 49619; MIC of ERY): <0.0020 µg/mL
MIC ATB combined with Example compound (SPN 49619; MIC of LZD): <=0.0078 μg/mL
MIC ATB combined with Example compound (SPN 49619; MIC of RIF): 0.00024 µg/mL
MIC ATB combined with Example compound (SPN 49619; MIC of SYN): <=0.0020 μg/mL
MIC ATB combined with Example compound (SPN 49619; MIC of VAN): <0.0039 µg/mL
MIC (SPN 49619; Streptococcus pneumoniae, substance alone, read-out: MIC): 8 µg/mL
MIC (KPN UFR42; Klebsiella pneumoniae, substance alone, read-out: MIC): 8 µg/mL
MIC ATB combined with Example compound (KPN UFR42; MIC of CIP): <0.031 µg/mL
MIC ATB combined with Example compound (KPN UFR42; MIC of CPO): <0.031 µg/mL
MIC ATB combined with Example compound (KPN 6299): <=0.031 μg/mL
MIC (KPN BAA-1898; Klebsiella pneumoniae, BAA1898, substance alone, read-out: MIC): 2 µg/mL
MIC ATB combined with Example compound (KPN BAA-1898; MIC of CIP, compound @4 μg/ml): <0.031 µg/mL
MIC (ECO 190317; [2]): 0.5 µg/mL
MIC ATB combined with Example compound (ECO 190317; MIC of CIP, compound @4 μg/ml): <0.031 µg/mL
MIC (ECO UFR39; [2]): 2 µg/mL
MIC ATB combined with Example compound (ECO UFR39; MIC of CIP): <0.031 µg/mL
MIC ATB combined with Example compound (ECO UFR39; MIC of CPO): <0.031 µg/mL
Structure (SMILES): O=C1N2CC(c3ncco3)=C[C@H](C2)N1OS(=O)(=O)[O-].[Na+] [Example 9, sodium [(5R)-3-(oxazol-2-yl)-7-oxo-1,6-diazabicyclo[3.2.1]oct-3-en-6-yl] sulfate]
